{"source": "patent US20210220340A1", "about": "“COMPOSITION FOR PREVENTION OR TREATMENT OF NEURODEGENERATIVE DISEASE” (THE ASAN FOUNDATION, priority 2018, published 2021)", "key": {"cathepsin L": {"test_system": "cathepsin L", "experiment": "Lysosomal function activity in astrocytes: degree of hydrolysis of cathepsin L", "type": "cell-based, mouse", "details": "bafilomycin A1-treated mouse astrocytes", "procedure": "Samples stained with enzymatic dyes such as cathepsin B and cathepsin L were administered into the cell culture to allow a reaction for 30 minutes, and changes in activity of lysosomes in cells were confirmed using a confocal microscope.\nAstrocytes were stained with a fluorescence-tagged lysosomal protein, and the degrees of hydrolysis of cathepsin B and cathepsin L, which are lysosomal proteins, were analyzed.\nFIG. 21 is a set of time-dependent confocal microscope images of mouse astrocytes, which are treated with bafilomycin A1, which is a vATPase inhibitor, to assess the degree of hydrolysis of cathepsin B (top) and cathepsin L (bottom)."}, "G93A SOD-1 mice": {"test_system": "G93A SOD-1 mice", "experiment": "Survival rate and motor behaviour in Lou Gehrig's disease animal model", "type": "in vivo, mouse", "excerpt": "G93A SOD-1 mice in which a mutant protein of the ALS-related gene SOD-1 (the expression of an amino acid at codon 93, in which glycine is substituted with alanine) of a human were used as Lou Gehrig's disease animal models. The G93A SOD-1 mice were purchased by the Jackson Laboratory (USA).\nIn the animal models of Lou Gehrig's disease, spinal motor neuron death occurs, causing limb paralysis at one or both sides. The clinical scoring system was differentiated using the following neurological scoring system.\nThe mice were euthanized at 0 points (Weydt et al. 2003). In the Lou Gehrig's disease animal models, which is one of the neurodegenerative disease models, a vehicle or amlexanox (AMX) was intraperitoneally administered at 2.5 mg/kg once daily for 5 days, and then a survival rate was measured through a behavioral experiment.\nThe behavioral experiment was performed on each of the AMX-administered group and the control (Veh) once or twice a week before symptoms occur until death. A method of gradually increasing a speed from 4 rpm to 40 rpm and a method of exercising at a constant speed of 15 rpm for 10 minutes were selected. The time to fall off from a rod was recorded to analyze the difference between the AMX-administered group and the control group.\nChanges in survival rate were confirmed by intraperitoneal injection into G93A-SOD mice daily at various AMX concentrations."}, "[1]": {"test_system": "amyloid beta-accumulated pericytes and astrocytes", "experiment": "Amyloid beta expression pattern on AMX treatment (western blotting)", "type": "cell-based, mouse", "details": "amyloid beta injected and accumulated in pericytes and astrocytes, then AMX", "procedure": "(§1) For astrocyte culture, first, cerebral cortices (neocortices) were dissociated from murine fetuses (3 weeks old), and the obtained cortical tissue was divided into single cells. […] New cells were cultured and used each time without passaging.\n(§2) Each type of cell was cultured under the culture conditions, a cell culture was restored, followed by preparing a particulate fraction in a 50 mM Tris buffer. Proteins obtained from the cell culture developed in a SDS polyacrylamide gel, transferred to an immobilon-P membrane (Millipore, USA), and reacted with antibodies overnight. Next day, western blots were washed, reacted with peroxidase-linked secondary antibodies at room temperature for 1 hour, followed by staining bands with 4-chloro-1-naphthol.\n(§3) FIG. 16 is a graph representing the percent activity (% activity) according to the concentrations of finally selected amlexanox (AMX) for various PDE isoforms, and FIGS. 17 and 18 show western blotting images representing the amyloid beta expression pattern and G93A SOD-1 and P301L tau expression when amyloid beta-accumulated pericytes and astrocytes are treated with the finally selected amlexanox (AMX)."}, "5×FAD mice": {"test_system": "5×FAD mice", "experiment": "Morris water maze test (hidden platform test and probe test) in Alzheimer's disease animal model", "type": "in vivo, mouse", "procedure": "To confirm whether amlexanox (AMX; Z007) is effective even for animal models, an experiment was conducted using 5×FAD mice, which is one of the Alzheimer-type dementia animal models. Here, the 5×FAD mice, which is one of the Alzheimer-type dementia animal models, were provided in Korea and used.\nDrug administration and behavioral evaluation were conducted on the same schedule as in FIG. […] Immediately after the end of the administration, a Morris water maze test, which is a behavioral experiment that can evaluate memory and learning ability, was conducted.\nThe Morris water maze test was performed as described in Behay. Brain Res. (155, 185-196) (refer to Behay. Brain Res., 155, 185-196). A water tank used in the water maze test is a cylindrical tank with a diameter of 90 cm and a height of 60 cm, and filled with water in which milk powder is diluted at 23±2[…] during a test period. In the tank, a transparent platform was installed 1 cm below the water surface, and four signs were placed outside the tank. The motion trajectory of a mouse was analyzed through a video tracking system (Smart3.0, Panlab, USA).\nDuring the trial period, the mice were placed into the water tank at four randomly selected starting points toward the side where the platform was not shown. In each trial, an escape latency, which is the time to find the platform after the mouse is put into the water tank, was recorded, and when finding the platform, the mouse was allowed to stay on the platform for 10 seconds and then moved to a home cage. […] Each trial was performed four times a day for 5 days.\nA probe test was conducted on the last […] of the test. After the platform was removed, the test was performed by allowing a mouse to swim in a water tank for 60 seconds and recording the time to first enter the location of the platform and how many times the mouse passed the location."}, "P301L tau": {"test_system": "P301L tau", "experiment": "Tau accumulation on AMX treatment (western blotting)", "type": "cell-based", "procedure": "as §2, §3"}, "GFP-tagged mHttQ protein": {"test_system": "GFP-tagged mHttQ protein", "experiment": "GFP-mHttQ aggregation (GFP antibody)", "type": "cell-based", "details": "cells injected with GFP-tagged mHttQ protein, AMX", "procedure": "A GFP-tagged mHttQ protein was injected into cells, thereby confirming a pharmacological reaction mediated by AMX using a GFP antibody. The accumulation of mHttQ in cells through aggregation was confirmed by GFP expression."}, "G93A SOD-1": {"test_system": "G93A SOD-1", "experiment": "G93A SOD-1 accumulation on AMX treatment (western blotting)", "type": "cell-based", "procedure": "as §2, §3"}, "astrocytes": {"test_system": "astrocytes", "experiment": "H2O2 oxidative damage cell death in astrocytes (LDH method)", "type": "cell-based", "details": "H2O2, after 24 hours", "procedure": "as §1\nSpecifically, cell death caused by oxidative damage was induced by injecting H2O2 into astrocytes, a cell culture model similar to the animal model with a neurodegenerative disease such as Alzheimer's disease or Lou Gehrig's disease was manufactured. To confirm the cell protective effect of amlexanox (AMX) in the cell model manufactured as described above, an untreated H2O2 control and an experimental group produced by administering amlexanox (AMX) into the untreated H2O2 control were prepared, and after 24 hours, cell death was quantitatively assessed by a LDH method."}, "[2]": {"details": "G93A-SOD mice, AMX at various concentrations, compared with untreated control"}, "[3]": {"details": "1 mg/kg and 2.5 mg/kg intraperitoneal, compared with Veh group"}}, "data": [{"compound": "CC(C)c1ccc2oc3nc(N)c(C(=O)O)cc3c(=O)c2c1", "note": "[amlexanox, 2-amino-7-isopropyl-5-oxo-5H-[1]benzopyrano[2,3-b] pyridine-3-carboxylic acid]", "values": [{"measurement": "time to restore lysosomal activity of cathepsin L to the original state", "setting": "cathepsin L", "value": "≤ 60", "unit": "min"}, {"measurement": "survival rate", "setting": "G93A SOD-1 mice; G93A SOD-1 mice, 2.5 mg/kg intraperitoneal once daily 5 days a week from week 10", "value": "130.2 ± 2.0", "unit": "days"}, {"measurement": "onset of ataxia", "setting": "G93A SOD-1 mice; [2]", "value": "slower"}, {"measurement": "progression of ataxia", "setting": "G93A SOD-1 mice; [2]", "value": "reduced"}, {"measurement": "survival rate", "setting": "G93A SOD-1 mice; G93A-SOD mice, daily intraperitoneal injection at various AMX concentrations, compared with Veh group", "value": "concentration-dependently increased"}, {"measurement": "aggregation of amyloid beta protein", "setting": "[1]", "value": "inhibited"}, {"measurement": "number of passing the target point", "setting": "5×FAD mice; [3]", "value": "increases"}, {"measurement": "time to find the target point", "setting": "5×FAD mice; [3]", "value": "increase"}, {"measurement": "memory and learning ability", "setting": "5×FAD mice; AMX-administered", "value": "improved"}, {"measurement": "accumulation of toxic protein Tau", "setting": "P301L tau", "value": "reduced"}, {"measurement": "GFP expression (aggregated GFP-mHttQ protein)", "setting": "GFP-tagged mHttQ protein", "value": "decrease"}, {"measurement": "accumulation of toxic protein G93A SOD-1", "setting": "G93A SOD-1", "value": "reduced"}, {"measurement": "cell death", "setting": "astrocytes", "value": "up to 40%"}]}]}
